Tested on: latent HIV-1 infection in LWI6 cells
Experiment: Reactivation of latent HIV-1 in LWI6 reporter cells, EGFP plate based fluorometry (384-well)
Format: cell-based
Settings: LWI6, 1×10^5 cells/well, 384-well plate
Description: Latently HIV-1 infected reporter cell lines with an increased dynamic range of the EGFP signal. An indicator cell line with HTS feasibility was generated through stable transfection with a reporter plasmid in which the HIV-1 promoter (long terminal repeat; LTR) controls the expression of EGFP. Nucleic acid sequences for HIV-1 LTR (SEQ ID NO:1) can be accessed via GenBank Accession No. X03189. All of the information, including any nucleic acid and amino acid sequences provided for HIV-1 LTR under GenBank Accession X03189 is hereby incorporated in its entirety by this reference. […] In the resulting latently infected T cell clones (LWI4, LWI6, LWI7, LRJ3, LRJ5, LRJ12), maximal EGFP expression was increased by a factor of 10 in comparison to other reporter cell lines incorporating GFP into the HIV-1 genome when analyzed by flow cytometry (FIG. 1).
Assay optimization in […] format plates. […] The need to work with low quantities of material and thus low numbers of reporter cells that are treated has to be balanced with the requirements to obtain a sufficiently high signal to background ratio to avoid false negative hits during the screen. […] Although EGFP fluorescence continued to increase up to the highest density of cells, wells with 1×10^5 cells gave a 40-fold increase of EGFP fluorescence intensity over background after 24 h, and an 80-fold increase after 48 h. […]

TNF-α
increase of EGFP fluorescence intensity over background (after 24 h): 40 fold | increase of EGFP fluorescence intensity over background (after 48 h): 80 fold
